Measurements as given in PMC7126465 (Bioorganic & Medicinal Chemistry, 2017).
Like-named read-outs stand apart in the source and are kept apart here.

Key:
[1] = tested on: human embryonic lung (HEL) cells; assay: Cytotoxicity, alteration of cell morphology; type: cell-based; conditions: microscopically detectable alteration of cell morphology
HSV = assay: organism not typed; type: cell-based, herpes simplex virus; conditions: for EC50: HEL, read-out: EC50 range against HSV
VZV = assay: microbe, parasite or virus in culture; type: cell-based, varicella-zoster virus; conditions: for EC50: Human alphaherpesvirus 3, HEL, read-out: EC50 range against VZV
[2] = tested on: herpesviruses (HSV, VZV, HCMV); assay: Anti-herpesvirus activity overall; type: cell-based; conditions: for Anti-herpesvirus activity (in words): HEL cells
[3] = tested on: human embryonic lung (HEL) cells; assay: Cytostatic activity, inhibition of HEL cell growth; type: cell-based
Vaccinia virus = assay: microbe, parasite or virus in culture; type: cell-based, vaccinia virus Lederle strain; conditions: for EC50: read-out: EC50 (HEL) Vaccinia virus
HCMV = assay: microbe, parasite or virus in culture; type: cell-based, human cytomegalovirus; conditions: for EC50: read-out: EC50 range against HCMV
HCMV (AD-169) = assay: Antiviral assay, HCMV; type: cell-based, human cytomegalovirus; conditions: read-out: EC50 (HEL) HCMV (AD-169); HEL cells
HSV-1 TK− KOS ACVr = assay: Antiviral CPE inhibition, TK- HSV-1 KOS ACVr in HEL cells; type: cell-based, herpes simplex virus type 1; conditions: read-out: EC50 (HEL) HSV-1 TK− KOS ACVr
VZV TK+ (Oka) = type: cell-based, varicella-zoster virus; conditions: read-out: EC50 (HEL) VZV TK+ (Oka); HEL cells
HSV-2 (G) = assay: Antiviral CPE inhibition, HSV-2; type: cell-based, herpes simplex virus type 2; conditions: read-out: EC50 (HEL) HSV-2 (G); HEL cells
VZV TK− (07-1) = type: cell-based, varicella-zoster virus; conditions: read-out: EC50 (HEL) VZV TK− (07-1)
HCMV (Davis) = assay: Antiviral assay, HCMV; type: cell-based, human cytomegalovirus; conditions: read-out: EC50 (HEL) HCMV (Davis); HEL cells

## Nc1nc2c(ncn2COCCO)c(=O)[nH]1 [Acyclovir, reference compound]
[1]
  Cytotoxicity MCC (minimum cytotoxic concentration): >440 µM

## O=c1[nH]c(=O)n([C@H]2C[C@H](O)[C@@H](CO)O2)cc1/C=C/Br [Brivudin, reference compound]
[1]
  Cytotoxicity MCC (minimum cytotoxic concentration): 300 µM

## Nc1ccn(C[C@@H](CO)OCP(=O)(O)O)c(=O)n1.O.O [Cidofovir, reference compound]
[1]
  Cytotoxicity MCC (minimum cytotoxic concentration): ≥300 µM

## Nc1cc(OCCOCP(=O)(O)O)nc(N)n1 [Compound 1, 2,4-diamino-6-[2-(phosphonomethoxy)ethoxy]pyrimidine]
[1]
  Cytotoxicity MCC (minimum cytotoxic concentration): >100 µM
HSV; range over HSV strains
  Selectivity index (SI, ratio CC50/EC50) HSV: 1.7–4.5
VZV; range over VZV strains
  Selectivity index (SI, ratio CC50/EC50) VZV: 19–44

## CC(C)(C)C(=O)OCOP(=O)(COCCOc1cc(N)nc(N)n1)OCOC(=O)C(C)(C)C [Compound 2, Bis(pivaloyloxymethyl) ester of 2,4-diamino-6-[2-(phosphonomethoxy)ethoxy]pyrimidine]
[2]
  Fold more active than PMEO-DAPy (anti-herpesvirus activity): 2 to 4.5 fold
[1]
  Cytotoxicity MCC (minimum cytotoxic concentration): ≥100 µM
[3]
  Fold more cytostatic than PMEO-DAPy: 5.5 fold
Vaccinia virus; Orthopoxvirus vaccinia, HEL
  EC50: ≥ 20 µM

## CC(C)(C)C(=O)OCOP(=O)([O-])COCCOc1cc(N)nc(N)n1.[Na+] [Compound 3, Pivaloyloxymethyl ester of 2,4-diamino-6-[2-(phosphonomethoxy)ethoxy]-pyrimidine]
[2]
  Anti-herpesvirus activity (in words): potency and selectivity virtually identical to PMEO-DAPy
[1]
  Cytotoxicity MCC (minimum cytotoxic concentration): >100 µM

## CCOC(=O)[C@H](C)NP(=O)(COCCOc1cc(N)nc(N)n1)N[C@@H](C)C(=O)OCC [Compound 5, Bis(L-alanineethyl ester) prodrug of 2,4-diamino-6-[2-(phosphonomethoxy)ethoxy]pyrimidine]
[1]
  Cytotoxicity MCC (minimum cytotoxic concentration): 217 µM
HCMV; Human betaherpesvirus 5, HEL
  EC50: 17 to 29 µM
HCMV; range over HCMV strains
  Selectivity index (SI, ratio CC50/EC50) HCMV: ≤ 1
HSV
  Fold more active than parental drug PMEO-DAPy (HSV): 6–20 fold
HSV; range over HSV strains
  Selectivity index (SI, ratio CC50/EC50) HSV: 4–15
Vaccinia virus
  Anti-vaccinia virus activity (in words): very low anti-vaccinia virus activity without selectivity
VZV
  Fold more active than parental drug PMEO-DAPy (VZV): 3–16 fold
VZV; range over VZV strains
  Selectivity index (SI, ratio CC50/EC50) VZV: 15–52

## CC(C)OC(=O)OCOP(=O)(COCCn1cnc(N)nc1=O)OCOC(=O)OC(C)C [Compound 7, Bis[(isopropoxycarbonyl)oxymethyl] ester of 1-[2-(phosphonomethoxy)ethyl]-5-azacytosine]
[1]
  Cytotoxicity MCC (minimum cytotoxic concentration): >100 µM

## CC(C)OC(=O)OCOP(=O)(O)COCCn1cnc(N)nc1=O [Compound 8, (Isopropoxycarbonyl)oxymethyl ester of 1-[2-(phosphonomethoxy)ethyl]-5-azacytosine]
[2]
  Anti-herpesvirus activity (in words): minimal or no anti-herpesvirus activities
[1]
  Cytotoxicity MCC (minimum cytotoxic concentration): >100 µM

## CC(C)(C)C(=O)OCOP(=O)(COCCn1cnc(N)nc1=O)OCOC(=O)C(C)(C)C [Compound 9, Bis(pivaloyloxymethyl) ester of 1-[2-(phosphonomethoxy)ethyl]-5-azacytosine]
[1]
  Cytotoxicity MCC (minimum cytotoxic concentration): 209 µM
HCMV; Human betaherpesvirus 5, HEL
  EC50: 1 to 3 µM
HCMV; range over HCMV strains
  Selectivity index (SI, ratio CC50/EC50) HCMV: 14–47
HSV
  EC50: 0.7 to 1.3 µM
HSV; range over HSV strains
  Selectivity index (SI, ratio CC50/EC50) HSV: 37–63
VZV
  EC50: 0.7 to 1.3 µM
VZV; range over VZV strains
  Selectivity index (SI, ratio CC50/EC50) VZV: 35–71

## CC(C)(C)C(=O)OCOP(=O)([O-])COCCn1cnc(N)nc1=O.[Na+] [Compound 10, Pivaloyloxymethyl ester of 1-[2-(phosphonomethoxy)ethyl]-5-azacytosine, sodium salt]
[2]
  Anti-herpesvirus activity (in words): minimal or no anti-herpesvirus activities
[1]
  Cytotoxicity MCC (minimum cytotoxic concentration): >275 µM

## CCOC(=O)[C@H](Cc1ccccc1)NP(=O)(COCCn1cnc(N)nc1=O)N[C@@H](Cc1ccccc1)C(=O)OCC [Compound 12, Bis(L-phenylalanineethyl ester) prodrug of 1-[2-(phosphonomethoxy)ethyl]-5-azacytosine]
[1]
  Cytotoxicity MCC (minimum cytotoxic concentration): >100 µM
HCMV; Human betaherpesvirus 5, HEL
  EC50: 7.5 to 15.5 µM
HSV
  EC50: 32 to 42 µM
VZV
  EC50: 27 to 29 µM

## CCOC(=O)[C@H](Cc1ccccc1)NP(=O)(O)COCCn1cnc(N)nc1=O [Compound 13, (L-Phenylalanine ethyl ester) prodrug of 1-[2-(phosphonomethoxy)ethyl]-5-azacytosine]
[2]
  Anti-herpesvirus activity (in words): lacked activity against herpesviruses
[1]
  Cytotoxicity MCC (minimum cytotoxic concentration): >100 µM

## COP(=O)(O)COCCn1cnc(N)nc1=O [Compound 14, Methyl ester of [2-(phosphonomethoxy)ethyl]-5-azacytosine]
[2]
  Anti-herpesvirus activity (in words): lacked activity against herpesviruses
[1]
  Cytotoxicity MCC (minimum cytotoxic concentration): >100 µM

## CCCCCCCCCCCCCCCCCCOCCOP(=O)(COCCn1cnc(N)nc1=O)OCCOCCCCCCCCCCCCCCCCCC [Compound 15, Bis(octadecyloxyethyl) ester of 1-[2-(phosphonomethoxy)ethyl]-5-azacytosine]
[2]
  Anti-herpesvirus activity (in words): deprived of anti-herpesvirus properties
[1]
  Cytotoxicity MCC (minimum cytotoxic concentration): 20 µM

## CCCCCCCCCCCCCCCCCCOCCNc1ncn(CCOCP(=O)(OCCOCCCCCCCCCCCCCCCCCC)OCCOCCCCCCCCCCCCCCCCCC)c(=O)n1 [Compound 16, Bis(octadecyloxyethyl) ester of N^4-octadecyloxyethyl-1-[2-(phosphonomethoxy)ethyl]-5-azacytosine]
[2]
  Anti-herpesvirus activity (in words): deprived of anti-herpesvirus properties
[1]
  Cytotoxicity MCC (minimum cytotoxic concentration): 100 µM

## CCCCCCCCCCCCCCCCCCOCCOP(=O)(O)COCCn1cnc(N)nc1=O [Compound 17, Octadecyloxyethyl ester of 1-[2-(phosphonomethoxy)ethyl]-5-azacytosine]
[1]
  Cytotoxicity MCC (minimum cytotoxic concentration): 100 ± 0 µM
HCMV; Human betaherpesvirus 5, HEL
  EC50: 0.24 to 1.12 µM
HCMV; range over HCMV strains
  Selectivity index (SI, ratio CC50/EC50) HCMV: 71–330
HSV
  EC50: 0.15 to 0.35 µM
HSV; range over HSV strains
  Selectivity index (SI, ratio CC50/EC50) HSV: 226–528
VZV
  EC50: 0.32 to 0.8 µM
VZV; range over VZV strains
  Selectivity index (SI, ratio CC50/EC50) VZV: 100–248

## CCCCCCCCCCCCCCCCNC(=O)[C@@H](N)Cc1ccc(OP(=O)(COCCn2cnc(N)nc2=O)Oc2ccc(C[C@H](N)C(=O)NCCCCCCCCCCCCCCCC)cc2)cc1 [Compound 23, Bis(Hexadecylamido-L-tyrosyl) ester of 1-[2-(phosphonomethoxy)ethyl]-5-azacytosine]
[1]
  Cytotoxicity MCC (minimum cytotoxic concentration): 60 ± 57 µM
HCMV
  Selectivity index (SI, ratio CC50/EC50) HCMV: 13–56
HSV
  Selectivity index (SI, ratio CC50/EC50) HSV: 45–68
VZV
  Selectivity index (SI, ratio CC50/EC50) VZV: 47–93

## Nc1nc(O)c2ncn(COC(CO)CO)c2n1 [Ganciclovir, reference compound]
[1]
  Cytotoxicity MCC (minimum cytotoxic concentration): >350 µM

## Bis[(isopropoxycarbonyl)oxymethyl] ester of 2,4-diamino-6-[2-(phosphonomethoxy)ethoxy]pyrimidine [Compound 4]
HCMV (AD-169)
  EC50: 90.1 µM
[1]
  Cytotoxicity MCC (minimum cytotoxic concentration): >202 µM
HCMV; range over HCMV strains
  Selectivity index (SI, ratio CC50/EC50) HCMV: ≤ 1
HCMV; range over HCMV strains, HEL cells
  EC50: 86 to 90 µM
HSV-1 TK− KOS ACVr
  EC50: 3.7 ± 3 µM
HSV
  Fold more active than parental drug PMEO-DAPy (HSV): 6–20 fold
HSV; range over HSV strains
  Selectivity index (SI, ratio CC50/EC50) HSV: 4–15
VZV TK+ (Oka)
  EC50: 0.32 ± 0.37 µM
HSV-2 (G)
  EC50: 1.01 ± 0.86 µM
Vaccinia virus
  Anti-vaccinia virus activity (in words): very low anti-vaccinia virus activity without selectivity
  EC50: 160 ± 60 µM
VZV
  Fold more active than parental drug PMEO-DAPy (VZV): 3–16 fold
VZV; range over VZV strains
  Selectivity index (SI, ratio CC50/EC50) VZV: 15–52
VZV TK− (07-1)
  EC50: 0.29 ± 0.19 µM
HCMV (Davis)
  EC50: 86.3 ± 5.4 µM
